Converted amounts (≈) assume the structure as drawn. Like-named read-outs stand apart in the source and are kept apart here.
Tests used:
[1] = Release of calcitriol from PLGA-PEG-PLGA hydrogels; format: physicochemical
Method: The biodegradable PLGA-PEG-PLGA triblock polymer described in this example has a PLG/PEG weight ratio of 2.3 (70/30), and a lactide/glycolide molar ratio of approx. 15/1. Synthesis of the triblock copolymer is performed as described in Example 2.1. An aliquot of 20 μl of a stock solution of calcitriol (2 mg/ml; 4.8 mM) in absolute ethanol (Cayman/Biomol GmbH) is combined with 160 μl of 25% gel solution and 20 μl of 10×PBS (final concentration of calcitriol: 0.2 mg/ml or 0.48 mM; final concentration of ethanol: 10%).
The mixture of 5.1.1 is incubated for 2 minutes at 37° C. to induce gelling and overlayed with 200 μl of 1×PBS. At frequent time points the supernatant is removed by pipetting and stored at 4° C. The removed supernatant is replaced by fresh 200 μl of 1×PBS. Controls of the same concentration of calcitriol in 1×PBS without gel are incubated and sampled in parallel.
After 48 hours the samples and controls are analysed using a Vitamin D ELISA kit, according to the manual of the manufacturer (Euroimmun AG, Luebeck). The assay is applicable for the determination of 25-0H vitamin D3 and other hydroxylated vitamin D3 molecules, and sufficiently linear from 4.0 to 120 ng/ml of 25-0H vitamin D3 (cross reactivity with calcitriol: 45%).
In brief, 20 μl of diluted samples are mixed with 230 μl of sample buffer containing a biotin-labed 25-0H vitamin D derivative. 200 μl of the mixture are transferred to an ELISA well of an 8-well strip and incubated at room temperature for 2 hours. The wells are washed with 3×300 μl washing buffer. Peroxidase labelled steptavidin-conjugate (100 μl) is added and incubated for a further hour. The well is again washed 3× with 300 μl washing buffer. Tetramethyl-benzidine (100 μl) substrate solution is added and developed until sufficient coloring. The reaction is stopped by addition of 100 μl 0.5 M sulphuric acid and measured spectrometrically at 420 nm with reference 650 nm.

[2] = cited from earlier work
[3] = system: experimental autoimmune encephalomyelitis; conditions: i.p. 5 μg/kg every 2 days; cited from earlier work
[4] = humans; cited from earlier work
[5] = rat, in vivo; cited from earlier work
[6] = Solubility; format: physicochemical
Method: In water, the solubility of OVA is about one gram per ml of water. Methylated BSA (mBSA) has been used for immunization at a concentration of 50 mg/ml of 0.9% NaCl (Gent et al., 2014).
In water DexP (MW 516.4) is soluble at a concentration of 50 mg/ml (product information of Santa Cruz Biotechnology), in PBS at a concentration of at least 25 mg/ml (Anderson et al., 2010), and in 10 mM HEPES and 135 mM NaCl, pH 6.7, at a concentration of at least 50 mg/ml (Koning et al., 2006).

[7] = system: Langerhans cells (LCs) and dermal dendritic cells (DDCs); conditions: LCs and DDCs primed in vitro; cited from earlier work

**Q.** Which results are given for C=C1/C(=C\C=C2/CCC[C@]3(C)[C@@H]([C@H](C)CCCC(C)(C)O)CC[C@@H]23)C[C@@H](O)C[C@@H]1O [calcitriol, 1α,25-dihydroxyvitamin D3]?
**A.** hydrogel-embedded calcitriol released ([1]; after 12 hours): approx. 45%; hydrogel-embedded calcitriol released ([1]; after 24 hours): approx. 65%; hydrogel-embedded calcitriol released ([1]; after 48 hours): approx. 85%; hydrogel-embedded calcitriol released ([1]; within the first 2 hours): approx. 15%; calcitriol dose that can be administered as single bolus i.p. injection ([2]; in 0.2 ml normal saline): up to 500 ng/mouse; calcitriol dose above which mice become hypercalcemic on day 2 or 3 ([2]; single bolus i.p.): higher than 750 ng/mouse; treated mice in which appearance of paralysis was prevented [3]: 70%; single oral dose relatively well tolerated (grade 1 to 2 adverse events) [4]: up to 165 μg; serum level of calcitriol to be kept below to avoid toxicity [5]: below 250 ng/ml; solubility ([6]; 1:5 ethanol:PBS, pH 7.2, aqueous with cosolvent or surfactant or cyclodextrin, read-out: solubility in a 1:5 solution of ethanol:PBS, pH 7.2): ~0.15 mg/mL (≈ 0.36 mM); solubility ([6]; ethanol, organic solvent or mixture, read-out: solubility in ethanol): ~50 mg/mL (≈ 120 mM); calcitriol concentration required to effectively induce FoxP3(+)Tregs and FoxP3(−)IL-10(+)TR1 cells [7]: 2.5 µM
